Counter-ions that a name gives are not always drawn.
How the values were obtained:
[1] = molecular target: T1, recombinant human D2(short) dopamine receptor (Homo sapiens, UniProt P14416); experiment: Dopamine D2S receptor binding assay ([3H]spiperone, CHO cell membranes); conditions: human D2S receptors in CHO cells, 0.2 nM [3H]spiperone, mean ± SEM; read-out: Affinity Ki (D2)
T1 construct: expressed in transfected cells; host or cells: CHO-D2S cells (per Hayes et al. 1992)
Experimental: (§1) Compounds synthesized in Examples A, B, C and D were assayed to test their affinity for dopamine D3 and D2 receptors.
(§2) METHODS: Dopamine D2S and D3 Receptor Binding Assays
CHO-D2S cells, expressing the recombinant human D2(short) dopamine receptor gene, (Hayes, G. et al., J. Mol. Endocrinol. 1992, 6, 920-926) were grown in Dulbecco's modified Eagle's medium/nutrient mixture F12 1:1 mixture supplemented with 2 mM glutamine, 10% fetal bovine serum, and 10 μl·ml^−1 penicillin/streptomycin in an atmosphere of 5% CO2 at 37° C. (Gibco™, Karlsruhe, Germany).
(§3) Human D2S- and D3 receptors expressing cell lines were grown to confluence. The medium was removed, and the cells were washed with 10 ml PBS buffer (140 mM NaCl, 3 mM KCl, 1.5 mM KH2PO4, 8 mM Na2HPO4, pH 7.4) at 4° C. After removing the wash buffer, the cells were scraped from the flasks into 15 ml of ice-cold media, and centrifuged at 3,000 rpm for 10 minutes at 4° C. After centrifugation the medium was removed and the […] resuspended in ice-cold Tris-HCl buffer containing 5 mM MgCl2, pH 7.4 and disrupted with a Polytron and centrifuged at 20,000 rpm, for 30 minutes at 4° C. The pellet was resuspended by sonication in ice-cold Tris-HCl buffer (containing 5 mM MgCl2, pH 7.4), membrane aliquots were stored at −70° C. Determination of membrane protein was carried out by the method of Bradford (Bradford, M. M. Anal Biochem 1976, 72, 248-54).
(§4) Cell membranes containing human D2S and D3 receptors from CHO cells were thawed, rehomogenized with sonication at 4° C. in Tris-HCl, pH 7.4 containing 120 mM NaCl, 5 mM KCl, 2 mM CaCl2 and 1 mM MgCl2 (incubation buffer), and incubated with 0.2 nM [^3H]spiperone (106 Ci·mmol^−1, Amersham Biosciences, Freiburg, Germany), and drug diluted in incubation buffer. Non-specific binding was determined in the presence of 10 μM BP 897 ((Wermuth, C. G. et al. in Chem. Abstr. (Eur. Pat. 0779284, 1997)). Incubations were run at 25° C. for 120 min, and terminated by rapid filtration through PerkinElmer GF/B glass fibre filters (PerkinElmer Life Sciences, Rodgau, Germany) coated in 0.3% polyethylenimine (Sigma-Aldrich, Taufkirchen, Germany) using an Inotech cell harvester (Inotech AG, Dottikon, Switzerland). Unbound radioligand was removed with four washes of 1 ml of ice-cold 50 mM Tris-HCl buffer, pH 7.4, containing 120 mM NaCl. The filters were soaked in 9 ml Beta plate scint scintillator and counted using a PerkinElmer MicroBeta®Trilux scintillation counter (PerkinElmer Life Sciences). Competition binding data were analyzed by the software GraphPad Prism™ (2000, version 3.02, San Diego, Calif., USA), using non-linear least squares fit. For detailed screening the compounds have been tested at seven concentrations in triplicate carrying out three to five separate binding experiments for human dopamine D2S and for human dopamine D3 receptors and expressed as mean±standard error of the mean (SEM). Ki values were calculated from the IC50 values according to Cheng-Prusoff equation (Cheng, Y. C., Prusoff, W. H. Biochem. Pharmacol. 1973, 22, 3099-3108.).

[2] = molecular target: T2, human dopamine D3 receptors (Homo sapiens, UniProt P35462); experiment: Dopamine D3 receptor binding assay ([3H]spiperone, CHO cell membranes); conditions: for Ki: human D3 receptors in CHO cells, 0.2 nM [3H]spiperone, mean ± SEM, read-out: Affinity Ki (D3); for Selectivity Ki(D2)/Ki(D3): ratio of Ki(D2) to Ki(D3)
T2 construct: expressed in transfected cells
Experimental: as §1, §2
Human D3 receptors stably expressed in CHO cells were used as described by Sokoloff et al. (Sokoloff, P. et al., Eur. J. Pharmacol. 1992, 225, 331-337). The cell line was cultured in Dulbecco's modified Eagle's medium supplemented with 2 mM glutamine, and 10% dialyzed fetal bovine serum, and were grown in an atmosphere of 5% CO2 at 37° C. (Gibco™).
as §3, §4

[3] = tested on: 6-OHDA-lesioned rat model of Parkinson's disease; experiment: Rotational behaviour in 6-OHDA-lesioned rat model of Parkinson's disease; type: in vivo; conditions: for onset and persistence of activity: following oral or intra-peritoneal application, FIGS. 12, 16, 17; for onset of action / short or long acting in vivo: in vivo model
Experimental: Preparation of 6-OHDA-Lesioned Rat Model of Parkinson's Disease
Male Sprague-Dawley rats weighing 290-350 g were used. The rats were housed in a temperature-controlled room under a 12 hour light/dark cycle with free access to food and water. Thirty minutes prior to surgery, the animals were given the monoamine oxidase-B inhibitor pargyline (5 mg/kg i.p.;) and the noradrenaline uptake inhibitor desipramine (25 mg/kg i.p.). The rats were then placed under general anaesthesia (Flourothane) and immobilised in stereotaxic frame. Following reflection of cranial skin and periostium, a small bur-hole was made in the skull on the right side and a small puncture was made in the dura mater. Each animal then received a unilateral injection of 2.5 μl of the neurotoxin 6-hydroxydopamine hydrobromide (6-OHDA HBr; 5 mg/ml in sterile water with 0.1% ascorbic acid; i.e. 12.5 μg 6-OHDA per rat) into the right medial forebrain bundle at stereotaxic co-ordinates −2.8 mm from bregma, 2 mm lateral to the midline, and 9 mm below the skull. The 6-OHDA injection was made over a 5 minute period using a 5 μl Hamilton syringe. The rats were allowed to recover for 3 weeks following the lesion. Animals then received 0.05 mg/kg s.c. apomorphine to assess the extent of lesion. Animals displaying clear rotational behaviour directed contralateral to the lesioned side were selected for further studies.
Only lesioned animals were used in the study (as determined by apomorphine rotation).
Animals were administered a dose of the test compound at 1 mg/kg or 3 mg/kg (i.p.) and rotational behaviour was assessed for up to 4 hours following drug administration using automated rotometers. Alternatively, animals were administered a dose of the test compound at 10 mg/kg (p.o.) and rotational behaviour was assessed for up to 8 hours following drug administration using automated rotometers.
Each compound was administered to at least 5 rats.
Total net rotational activity. This parameter is calculated as the total number of 180° rotations (net contralateral) over the duration of the experiment.
Data were analysed independently for each novel compound with appropriate parametric statistics. All tests were carried out in Graphpad Prism Version 3.

[4] = patients treated with pramipexole; cited from earlier work

T2 sequence (P35462 whole entry): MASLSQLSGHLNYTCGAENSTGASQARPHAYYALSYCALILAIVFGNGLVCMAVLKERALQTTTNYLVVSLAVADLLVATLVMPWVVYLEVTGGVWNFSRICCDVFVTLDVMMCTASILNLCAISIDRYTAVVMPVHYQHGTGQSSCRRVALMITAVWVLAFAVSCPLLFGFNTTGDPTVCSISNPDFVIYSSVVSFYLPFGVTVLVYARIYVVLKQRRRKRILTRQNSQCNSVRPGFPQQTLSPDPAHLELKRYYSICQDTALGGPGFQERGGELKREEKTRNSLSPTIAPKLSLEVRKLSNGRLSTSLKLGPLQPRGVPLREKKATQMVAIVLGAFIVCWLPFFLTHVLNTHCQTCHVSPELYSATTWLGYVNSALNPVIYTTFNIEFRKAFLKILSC
T1 sequence (P14416 1-414 isoform P14416-2): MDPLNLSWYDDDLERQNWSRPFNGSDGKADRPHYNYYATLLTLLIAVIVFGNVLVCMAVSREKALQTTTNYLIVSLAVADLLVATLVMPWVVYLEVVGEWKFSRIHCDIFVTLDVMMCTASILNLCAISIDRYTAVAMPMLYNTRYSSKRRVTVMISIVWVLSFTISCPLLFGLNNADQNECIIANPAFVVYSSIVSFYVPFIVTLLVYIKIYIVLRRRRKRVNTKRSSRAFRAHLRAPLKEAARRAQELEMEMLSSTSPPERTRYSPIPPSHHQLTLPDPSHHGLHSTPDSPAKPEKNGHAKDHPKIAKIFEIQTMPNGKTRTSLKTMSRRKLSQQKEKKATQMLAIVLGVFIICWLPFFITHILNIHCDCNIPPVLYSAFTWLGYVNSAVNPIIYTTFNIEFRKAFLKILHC

| SMILES | Ki [1] [nM] | melting point [°C] | Ki [2] [nM] | Selectivity Ki(D2)/Ki(D3) [2] | onset and persistence of activity [3] | action at increasing doses ([3]; i.p. at 1 and 3 mg/kg) | onset of action [3] | short or long acting in vivo [3] | patients who may develop oedema [4] |
| --- | --- | --- | --- | --- | --- | --- | --- | --- | --- |
| CCCN(CCN1CCN(c2cccc(Cl)c2Cl)CC1)C1CCc2ncsc2C1 (centres unmarked) [Compound 35, {2-[4-(2,3 -Dichloro-phenyl)-piperazin-1-yl]-ethyl}-propyl-(4,5,6,7-tetrahydro-benzothiazol-6-yl)-amine] | 61.3 ± 19.1 | 103.5 | 21.7 ± 10.6 | 2 | – | – | – | – | – |
| CCCN(CCCCC(=O)NC12CC3CC(CC(C3)C1)C2)C1CCc2ncsc2C1 (centres unmarked) [Compound 68, N-Adamantanyl-5-(propyl-(4,5,6,7-tetrahydrobenzothiazol-6-yl)amino)pentanamide] | 457 ± 228 | – | 1.54 ± 0.46 | 297 | sustained activity over a number of hours | – | – | – | – |
| CCCN(CCN1CCN(c2ccccc2OC)CC1)C1CCc2ncsc2C1 (centres unmarked) [Compound 34, {2-[4-(2-Methoxy-phenyl)-piperazin-1-yl]-ethyl}-propyl-(4,5,6,7-tetrahydro-benzothiazol-6-yl)-amine] | 132 ± 40 | – | 4.5 ± 0.7 | 29 | rapid onset of activity and also have a sustained effect | substantially constant action | fast acting | – | – |
| CCCN(CCN1CCN(C(=O)c2cccc3ccccc23)CC1)C1CCc2ncsc2C1 (centres unmarked) [Compound 39, [2-(4-Naphthoyl-piperazin-1-yl)-ethyl]-propyl-(4,5,6,7-tetrahydro-benzothiazol-6-yl)-amine] | 3180 ± 1730 | – | 12.9 ± 3.8 | 247 | – | – | fast acting | short acting | – |
| CCCN(CCCCC(=O)Nc1ccc2ccccc2c1)C1CCc2ncsc2C1 (centres unmarked) [Compound 9, 5-[Propyl-(4,5,6,7-tetrahydro-benzothiazol-6-yl)-amino]-pentanoic acid naphthalen-2-ylamide] | 299 ± 38 | – | 0.55 ± 0.19 | 542 | – | – | fast acting | short acting | – |
| CCCN(Cc1ccc(C(=O)NC2Cc3ccccc3C2)cc1)C1CCc2ncsc2C1 (centres unmarked) [Compound 44, N-Indan-2-yl-4-{[propyl-(4,5,6,7-tetrahydrobenzothiazol-6-yl)amino]methyl}benzamide] | 16100 ± 8850 | 65 | 836 ± 211 | 19 | – | – | – | – | – |
| CCCN(Cc1ccc(C(=O)N2CCN(c3ccccc3)CC2)cc1)C1CCc2ncsc2C1 (centres unmarked) [Compound 43, (4-Phenylpiperazin-1-yl)-(4-{[propyl-(4,5,6,7-tetrahydrobenzothiazol-6-yl)amino]methyl}phenyl)methanone] | 1440 ± 273 | 70 | 29.4 ± 7.5 | 49 | – | – | – | – | – |
| CCCN(CCCCC(=O)NC1Cc2ccccc2C1)C1CCc2ncsc2C1 (centres unmarked) [Compound 67, N-(2,3-dihydro-1H-inden-2-yl)-5-(propyl-(4,5,6,7-tetrahydrobenzothiazol-6-yl)amino)pentanamide] | 1390 ± 304 | – | 0.9 ± 0.05 | 1550 | – | – | – | short acting | – |
| CCCN(CCCCNC(=O)N1CCc2ccccc2C1)C1CCc2ncsc2C1 (centres unmarked) [Compound 24, 3,4-Dihydro-1H-isoquinoline-2-carboxylic acid {4-[propyl-(4,5,6,7-tetrahydro-benzothiazol-6-yl)-amino]-butyl}-amide] | 1560 ± 464 | – | 3.95 ± 1.17 | 394 | – | – | – | short acting | – |
| CCCN(CCCCNC(=O)N1CCc2cc(OC)c(OC)cc2C1)C1CCc2ncsc2C1 (centres unmarked) [Compound 25, 6,7-Dimethoxy-3,4-dihydro-1H-isoquinoline-2-carboxylic acid {4-[propyl-(4,5,6,7-tetrahydro-benzothiazol-6-yl)-amino]-butyl}-amide] | 7610 ± 1810 | – | 2.67 ± 1.32 | 2850 | – | – | – | short acting | – |
| CCCN[C@H]1CCc2nc(N)sc2C1 [pramipexole, (S)-2-amino-4,5,6,7-tetra-hydro-6-(propylamino)benzothiazole dihydrochloride mono-hydrate] | – | – | – | – | – | – | – | – | 1-10% |
| CCN(CCN(CC)C1CCc2ncsc2C1)C1CCc2ncsc2C1 (centres unmarked) [Compound 33, N,N′-Diethyl-N,N′-bis-(4,5,6,7-tetrahydro-benzothiazol-6-yl)-ethane-1,2-diamine] | 468 ± 13.5 | – | 22.7 ± 13.5 | 19 | rapid onset of activity and also have a sustained effect | – | – | – | – |
| CCCN(Cc1ccc(C(=O)N(CCC)C2CCc3ncsc3C2)cc1)C1CCc2ncsc2C1 (centres unmarked) [Compound 42, N-Propyl-4-{[propyl-(4,5,6,7-tetrahydrobenzothiazol-6-yl)amino]methyl}-N-(4,5,6,7-tetrahydrobenzothiazol-6-yl)benzamide] | 16700 ± 3380 | 85 | 631 ± 388 | 26 | – | – | – | – | – |

Source: US8389555B2, “Medicaments” (Motac Neuroscience Limited, priority 2007, dated 2013)
